From US8673894B2 (Hoffmann-La Roche Inc., priority 2010, dated 2014)
Structures can show the parent of a compound that is named as a salt.

Tests used:
[1] = target: T1, endogenous cellular BACE2 (Rattus norvegicus, UniProt Q6IE75); assay: Assay for BACE inhibition by measuring cellular TMEM27 cleavage; type: cell-based; conditions: INS-TMEM27 (INS1e-derived) cells, shed human TMEM27 in supernatant by ELISA
T1 construct: endogenous cellular BACE2 in the Ins1e rat cell line; endogenous in cells; host or cells: INS-TMEM27 (INS1e-derived rat insulinoma cell line with doxycycline-inducible full-length human TMEM27)
T1 sequence (Q6IE75 63-514): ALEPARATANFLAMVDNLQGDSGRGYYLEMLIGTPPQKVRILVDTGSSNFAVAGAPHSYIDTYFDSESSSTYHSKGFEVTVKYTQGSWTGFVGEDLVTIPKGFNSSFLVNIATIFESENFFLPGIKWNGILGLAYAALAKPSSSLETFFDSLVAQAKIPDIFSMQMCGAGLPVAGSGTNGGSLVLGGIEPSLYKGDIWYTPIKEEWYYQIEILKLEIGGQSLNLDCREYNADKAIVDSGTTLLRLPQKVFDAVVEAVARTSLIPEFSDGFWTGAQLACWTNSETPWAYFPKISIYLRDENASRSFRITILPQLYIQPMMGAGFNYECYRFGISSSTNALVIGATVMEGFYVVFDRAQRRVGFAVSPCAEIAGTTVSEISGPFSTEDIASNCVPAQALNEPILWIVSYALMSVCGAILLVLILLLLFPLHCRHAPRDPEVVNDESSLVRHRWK
Description: Assay for BACE Inhibition by Measuring Cellular TMEM27 Cleavage:
The assay uses the principle of inhibition of human TMEM27 cleavage by endogenous cellular BACE2 in the Ins1e rat cell line and shedding from the cell surface into the culture medium, followed by detection in an ELISA assay. Inhibition of BACE2 prevents the cleavage and shedding in a dose-dependent manner.
The stable cell line “INS-TMEM27” represents an INS1e-derived cell line with inducible expression (using the TetOn system) of full-length hTMEM27 in a doxycycline-dependent manner. The cells are cultured throughout the experiment in RPMI1640+ Glutamax (Invitrogen) Penicillin/Streptomycin, 10% Fetal bovine serum, […], […], 100 micrograms/ml G418 and 100 microgram/ml hygromycin and are grown inadherent culture at 37° C. in a standard CO2 cell culture incubator.
INS-TMEM27 cells are seeded in 96-well plates. After 2 days in culture, BACE2 inhibitor is added in a range of concentrations as required by the assay and after a further two hours, doxycycline is added to a final concentration of 500 ng/ml. The cells are incubated for a further 46 hours and the supernatant harvested for detection of shed TMEM27.
An ELISA assay (using a pair of mouse anti-human-TMEM27 antibodies, raised against the extracellular domain of TMEM27) is used for detection of TMEM27 in the culture medium. An EC50 for BACE2 inhibition is calculated using the ELISA readout for each inhibitor concentration with standard curve-fitting software such as XLFit for the Excel spreadsheet program.

Aβ40 = assay: Cellular Aβ-lowering assay; type: cell-based; conditions: HEK293 cells stably expressing human APP695, Aβ40 in supernatant by ELISA after 18-20 hrs; read-out: Cellular assay Abeta40 IC50
Experimental: Cellular Aβ-Lowering Assay:
Human HEK293 cells which are stably transfected with a vector expressing a cDNA of the human APP wt gene (APP695) were used to assess the potency of the compounds in a cellular assay. The cells were seeded in 96-well microtiter plates in cell culture medium (Iscove, plus 10% (v/v) fetal bovine serum, glutamine, penicillin/streptomycin) to about 80% confluence and the compounds were added at a 10× concentration in 1/10 volume of medium without FCS containing 8% DMSO (final concentration of DMSO was kept at 0.8% v/v). After 18-20 hrs incubation at 37° C. and 5% CO2 in a humidified incubator the culture supernatant was harvested for the determination of Aβ40 concentrations. 96well ELISA plates (e.g., Nunc MaxiSorb) were coated with monoclonal antibody which specifically recognize the C-terminal end of Aβ40 (Brockhaus et al., NeuroReport 9, 1481-1486; 1998). After blocking of non-specific binding sites with e.g. 1% BSA and washing, the culture supernatants were added in suitable dilutions together with a horseradish peroxidase-coupled Aβ detection antibody (e.g., antibody 4G8, Senetek, Maryland Heights, Mo.) and incubated for 5 to 7 hrs. Subsequently the wells of the microtiter plate were washed extensively with Tris-buffered saline containing 0.05% Tween 20 and the assay was developed with tetramethylbenzidine/H2O2 in citric acid buffer. After stopping the reaction with one volume 1 N H2SO4 the reaction was measured in an ELISA reader at 450 nm wavelength. The concentrations of Aβ in the culture supernatants were calculated from a standard curve obtained with known amounts of pure Aβ peptide.

| Structure (SMILES) | IC50 [1] | IC50 (Aβ40) |
| --- | --- | --- |
| CC1(C)C[C@@](C)(c2cc(NC(=O)C3(C(F)(F)F)CC3)ccc2F)N=C(N)CO1 [Example 20, 1-Trifluoromethyl-cyclopropanecarboxylic acid [3-((S)-3-amino-5,7,7-trimethyl-2,5,6,7-tetrahydro-[1,4]oxazepin-5-yl)-4-fluoro-phenyl]-amide] | 38 nM | 220 nM |
| CC1(C)C[C@@](C)(c2cc(NC(=O)c3ncc(C(F)(F)F)cc3Cl)ccc2F)N=C(N)CO1 [Example 21, 3-Chloro-5-trifluoromethyl-pyridine-2-carboxylic acid [3-((S)-3-amino-5,7,7-trimethyl-2,5,6,7-tetrahydro-[1,4]oxazepin-5-yl)-4-fluoro-phenyl]-amide] | 8.7 nM | 3.2 nM |
| CC1(C)C[C@@](C)(c2cc(NC(=O)CC(F)(F)F)ccc2F)N=C(N)CO1 [Example 22, N-[3-((S)-3-Amino-5,7,7-trimethyl-2,5,6,7-tetrahydro-[1,4]oxazepin-5-yl)-4-fluoro-phenyl]-3,3,3-trifluoro-propionamide] | 55 nM | 980 nM |
| C[C@@]1(c2cc(NC(=O)C3CC3(F)F)ccc2F)CCOCC(N)=N1 (stereo partly drawn) [Example 23, 2,2-Difluoro-cyclopropanecarboxylic acid [3-((S)-3-amino-5-methyl-2,5,6,7-tetrahydro-[1,4]oxazepin-5-yl)-4-fluoro-phenyl]-amide] | 140 nM | 1640 nM |
| C[C@@]1(c2cc(NC(=O)C3(C(F)(F)F)CCC3)ccc2F)CCOCC(N)=N1 [Example 24, 1-Trifluoromethyl-cyclobutanecarboxylic acid [3-((S)-3-amino-5-methyl-2,5,6,7-tetrahydro-[1,4]oxazepin-5-yl)-4-fluoro-phenyl]-amide] | 28 nM | 5870 nM |
| C[C@]1(c2cc(NC(=O)c3ncc(C(F)(F)F)cc3Cl)ccc2F)N=C(N)COCC1(F)F [Example 25, 3-Chloro-5-trifluoromethyl-pyridine-2-carboxylic acid [3-((R)-3-amino-6,6-difluoro-5-methyl-2,5,6,7-tetrahydro-[1,4]oxazepin-5-yl)-4-fluoro-phenyl]-amide] | 51 nM | 7 nM |
| C[C@]1(c2cc(NC(=O)c3ncccc3F)ccc2F)N=C(N)COCC1(F)F [Example 27, (R)-N-(3-(3-amino-6,6-difluoro-5-methyl-2,5,6,7-tetrahydro-1,4-oxazepin-5-yl)-4-fluorophenyl)-3-fluoropicolinamide, salt with formic acid] | 58 nM | 44 nM |

The remaining lines, values ahead:

| IC50 [1] | IC50 (Aβ40) | Structure (SMILES) |
| --- | --- | --- |
| 130 nM | 340 nM | CC1(C)OCCC(C)(c2cc(NC(=O)c3ccc(F)cn3)ccc2F)N=C1N (stereo not shown) [Example 28, 5-Fluoro-pyridine-2-carboxylic acid [3-(3-amino-2,2,5-trimethyl-2,5,6,7-tetrahydro-[1,4]oxazepin-5-yl)-4-fluoro-phenyl]-amide] |
| 3.3 nM | 5.3 nM | C[C@]1(c2cc(NC(=O)c3ccc(F)cn3)ccc2F)N=C(N)COCC1(F)F [Example 29, (R)-N-(3-(3-amino-6,6-difluoro-5-methyl-2,5,6,7-tetrahydro-1,4-oxazepin-5-yl)-4-fluorophenyl)-5-fluoropicolinamide formate] |
| 43 nM | 2.1 nM | C[C@]1(c2cc(NC(=O)c3ccc(C#N)cn3)ccc2F)N=C(N)COCC1(F)F [Example 30, (R)-N-(3-(3-amino-6,6-difluoro-5-methyl-2,5,6,7-tetrahydro-1,4-oxazepin-5-yl)-4-fluorophenyl)-5-cyanopicolinamide formate] |
| 2.6 nM | 1 nM | Cc1cc(Cl)cnc1C(=O)Nc1ccc(F)c([C@@]2(C)N=C(N)COCC2(F)F)c1 [Example 31, (R)-N-(3-(3-amino-6,6-difluoro-5-methyl-2,5,6,7-tetrahydro-1,4-oxazepin-5-yl)-4-fluorophenyl)-5-chloro-3-methylpicolinamide formate] |
